Assay results reported in patent US8791155B2, “Chroman derivatives” (Edison Pharmaceuticals, Inc., priority 2003, dated 2014).

What was measured:
[1] = tested on: dopaminergic neuronal cell line; assay: High glutamate-induced oxidative stress assay (HGOS); format: cell-based; conditions: Mus musculus; 30 mM glutamate, 16 hrs; read-out: EC50, protection against HGOS cell injury and cell death
Procedure, shortened: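 Mouse dopaminergic cells were grown 72 h at 33° C, washed into HBSS, then exposed to compounds in glucose-free DMEM with 1 mM glucose and 30 mM glutamate for 16 h at 37° C. Viability was read as Cell Tracker Green fluorescence at 485/538 nm after 30 min of 5 μM dye loading.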

[2] = tested on: release of the leukotriene LTB4 from MPRO cell line; assay: LTB4 assay (competitive ELISA); format: cell-based; conditions: Mus musculus; 1 μM calcium ionophore A23187, 1 hour; read-out: EC50, inhibition of LTB4 production
From the text: This procedure was used for measuring the release of the leukotriene LTB4 from a neutrophil cell line using a competitive ELISA technique.
• MPRO cell line (ATCC, Catalog #CRL-11422) • Calciumionophore (A23187) (Sigma, Catalog #C7522) • Nordihydroguaiaretic acid (NDGA) (BioMol, Catalog #E1101-0001) • Retinoic Acid (all-trans) (ATRA) (Sigma, Catalog #95152) • Sterile, tissue-culture treated 96-well plates (Corning, Catalog #3614) Materials for LTB4 ELISA • Precoated (Mouse Anti-Rabbit IgG) EIA 96 Well Strip Plates (Cayman, Catalog #400004) • Leukotriene B4 AChE Tracer (Cayman Catalog #420110) • Leukotriene B4 EIA Antiserum (Cayman Catalog #420112) • Ellman's Reagent (Cayman Catalog #400050) • EIA Buffer Concentrate (10×) (Cayman Catalog #400060) • Wash Buffer Concentrate (400×) (Cayman Catalog #400062) • Plastic plate covers (Cayman Catalog #400012) Procedure
A mouse promyelocytic cell line (MPRO) was used in this assay. These cells are committed immature neutrophils that can be differentiated into mature neutrophils by treatment with 10 μM all-trans retinoic acid for 72 hours
Following 72 hours of differentiation, cells were stimulated with 1 μM of a calcium ionophore (A23187) in the presence or absence of test compound or vehicle for 1 hour at 370 C. After this time, supernatant was removed from the cells and the LTB4 levels were determined following manufacturer's instructions, using a Leukotriene B4 EIA kit from Cayman (Cat #520111)
The negative controls were media samples from differentiated but unstimulated cells.
The compounds were screened at 5 concentrations in quadruplicate starting at 10 μM

Row | SMILES | EC50 [1] | EC50 [2]
1 | Cc1c(O)cc2c(c1C)OC(C)(CC/C=C1\SC(=O)NC1=O)CC2 (centres unmarked) [5-[3-(6-Hydroxy-2,7,8-trimethyl-chroman-2-yl)-propylidene]-thiazolidine-2,4-dione] | < 5 µM | –
2 | CC1=NN(c2ccccc2)C(=O)C1C(CCC1(C)CCc2cc(O)c(C)c(C)c2O1)C1C(=O)N(c2ccccc2)N=C1C (centres unmarked) [1-(6-Hydroxy-2,7,8-trimethyl-chroman-2-yl)-3-bis-(5-methyl-2-phenyl-2,4-dihydro-pyrazol-3-one-4-yl)-propane] | < 5 µM | –
3 | C=CCSCc1c(O)c(C)c(C)c2c1CCC(C)(C)O2 [5-Allylsulfanylmethyl-2,2,7,8-tetramethyl-chroman-6-ol] | < 5 µM | < 1 µM
4 | COC(=O)c1ccc(-c2c(O)c(C)c(C)c3c2CCC(C)(C)O3)cc1 [4-(6-Hydroxy-2,2,7,8-tetramethyl-chroman-5-yl)-benzoic acid methyl ester] | < 5 µM | < 1 µM
5 | Cc1c(C)c2c(c(C)c1O)CCC(C)(C=C(Br)Br)O2 (centres unmarked) [2-(2,2-Dibromo-vinyl)-2,5,7,8-tetramethyl-chroman-6-ol] | < 5 µM | < 1 µM
